# Data published in patent publication US7524849B2, “5-arylpyrimidines as anticancer agents” (Wyeth Holdings Corporation, priority 2003, dated 2009).
# Tests used:
# Format in all cases: cell-based, human
# KB-8-5 cells = assay: MTS cytotoxicity test with KB-8-5 cells (moderate P-glycoprotein); settings: for IC50: Homo sapiens, KB 8.5 cells, mean of 2 experiments; for Ratio 8.5/KB: IC50 on KB 8.5 cells/IC50 on KB cells
# Source text: (§1) Human cancer cell lines, unless otherwise noted, are obtained from the American Type Culture Collection (Rockville, Md.). The following drug-sensitive parental cell lines, and their derived drug-resistant counterparts, are obtained from the originators as listed: (a) S1 (parental line from a subclone of human colon carcinoma line LS174T) and derived S1-M1-3.2 (herein called S1-M1) which expresses the MXR drug transporter protein, are provided by Dr. L. Greenberger, Wyeth Research (Rabindran, S. K., He, H., Singh, M., Brown, E., Collins, K. I., Annable, T., and Greenberger, L. M. Reversal of a novel multidrug resistance mechanism in human colon carcinoma cells by fumitremorgin C. Cancer Res., 58: 5850-5858, 1998); (b) parental HL-60 human promyelocytic leukemia line and derived HL-60/ADR, which expresses the MRP1 drug transporter protein, are provided by Dr. M. Center, University of Kansas (McGrath, T., and Center, M. S. Adriamycin resistance in HL60 cells in the absence of detectable P-glycoprotein. Biochem. Biophys. […] J. Biol. Chem., 261: 7762-7770, 1986) via Dr. L. Greenberger, Wyeth Research.
# (§2) The assay, which is sold in kit form by Promega (Madison, Wis.; CellTiter 96 AQueous Non-Radioactive Cell Proliferation Assay), is based on the conversion by viable cells, but not by dead cells, of the tetrazolium salt, MTS (3-(4,5-dimethylthiazol-2-yl)-5-(3-carboxymethoxyphenyl)-2-(4-sulphophenyl)-2H-tetrazolium, inner salt), into a water-soluble colored formazan which is detected by spectrophotometry. Compounds are tested at nine concentrations, in order to determine IC50 values. For the test procedure, cells are harvested by trypsinization, washed, counted and distributed to wells of 96-well flat-bottom microtiter plates at 1000 cells per well in 200 μL of medium. In addition, one row of wells on a separate plate receives cells as above (“time 0” plate). All plates are incubated at 37° in humidified 5% CO2 in air for about 24 hr.
# (§3) On day 2, compounds for test are diluted and added to wells. Compounds are dissolved in DMSO at 10 mg/mL. For each compound, nine serial 2-fold dilutions are prepared in DMSO. Ten μL of each dilution in DMSO are transferred to 100 μL of medium, mixed well, and then 5 μL of this dilution are transferred in quadruplicate to wells containing cells. […] Plates are returned to the incubator for three days. At the time of drug addition to the experimental plates, the MTS assay is run on the “time 0” plate. This produces the “time 0 MTS value” which is related to the number of viable cells per well at the time of drug addition.
# (§4) After three days of culture with test compounds (day 5 overall), the MTS assay is done on all wells of the experimental plates. The absorbance values of the quadruplicate sample wells are averaged and divided by the average of the “time 0” values. […] The nine values for each compound are plotted against concentration, and the concentration that produces a relative color yield half way between the maximum and minimum is taken as the IC50 value.
# KB cells = assay: MTS cytotoxicity test with KB cells; settings: Homo sapiens, mean of 2 experiments
# Source text: as §1, §2, §3, §4
# HL-60/ADR cells = assay: MTS cytotoxicity test with HL-60/ADR cells (MRP1); settings: for IC50: Homo sapiens, HL60/ADR, HL-60/ADR cells, mean of 2 experiments; for Ratio: IC50 on HL-60/ADR cells/IC50 on HL-60 cells
# Source text: as §1, §2, §3, §4
# (§5) HL-60/ADR cells overexpress the multidrug resistance protein MRP1 which mediates resistance to some chemotherapeutics (Gottesman, M. M., Fojo, T., and Bates, S. E. Multidrug resistance in cancer: role of ATP-dependent transporters. Nature Rev. Cancer, 2: 48-58, 2002). The IC50 values of representative examples of this invention, as well as reference compounds, on HL-60/ADR are compared to values on the sensitive parental HL-60 line.
# KB-V1 cells = assay: MTS cytotoxicity test with KB-V1 cells (very high P-glycoprotein); settings: for IC50: Homo sapiens, KB-V1, KB VI cells, mean of 2 experiments; for Ratio VI/KB: IC50 on KB VI cells/IC50 on KB cells
# Source text: as §1, §2, §3, §4
# S1 cells = assay: MTS cytotoxicity test with S1 cells; settings: Homo sapiens, mean of 2 experiments
# Source text: as §1, §2, §3, §4
# as §5, with “S1-M1” for “HL-60/ADR”, “MXR transporter” for “multidrug resistance protein MRP1”, “Miltidrug” for “Multidrug”, “S1” for “HL-60”
# HL-60 cells = assay: MTS cytotoxicity test with HL-60 cells; settings: Homo sapiens, mean of 2 experiments
# Source text: as §1, §2, §3, §4, §5
# S1-M1 cells = assay: MTS cytotoxicity test with S1-M1 cells (MXR); settings: for IC50: Homo sapiens, S1-M1 cells, mean of 2 experiments; for Ratio: IC50 on S1-M1 cells/IC50 on S1 cells
# Source text: as §1, §2, §3, §4
# as §5, with “S1-M1” for “HL-60/ADR”, “MXR transporter” for “multidrug resistance protein MRP1”, “Miltidrug” for “Multidrug”, “S1” for “HL-60”
# COLO 205 cells = assay: MTS cytotoxicity test with COLO 205 cells; settings: Homo sapiens, 72 h, three days with compound
# Experimental: as §2
# On day 2, compounds for test are diluted and added to wells. Compounds are dissolved in DMSO at 10 mg/mL. For each compound, nine serial 2-fold dilutions are prepared in DMSO. Ten μL of each dilution in DMSO are transferred to 100 μL of medium, mixed well, and then 5 μL of this dilution are transferred in quadruplicate to wells containing cells. The final high concentration of each compound is typically 5 μM. Plates are returned to the incubator for three days. At the time of drug addition to the experimental plates, the MTS assay is run on the “time 0” plate. This produces the “time 0 MTS value” which is related to the number of viable cells per well at the time of drug addition.
# After three days of culture with test compounds (day 5 overall), the MTS assay is done on all wells of the experimental plates. The absorbance values of the quadruplicate sample wells are averaged and divided by the average of the “time 0” values. The average of control wells without drug, divided by the average “time 0” value, gives the maximal relative increase in MTS color yield due to cell growth during the final three days of culture. The average of control wells with high drug concentration, divided by the “time 0” value, gives the minimal relative color yield for cells that were completely killed. The nine values for each compound are plotted against concentration, and the concentration that produces a relative color yield half way between the maximum and minimum is taken as the IC50 value.
# COLO 205 is a human colon carcinoma cell line that is used for comparative testing of the examples of this invention and several reference compounds. This line is sensitive to paclitaxel and vincristine.
smiles,measurement,setting,value
"COc1cccc2c1C(=O)c1c(O)c3c(c(O)c1C2=O)C[C@@](O)(C(=O)CO)C[C@@H]3O[C@H]1C[C@H](N)[C@H](O)[C@H](C)O1 [Doxorubicin, reference compound]",IC50,KB-8-5 cells,255 nM
same,Ratio 8.5/KB,KB-8-5 cells,6.8
same,IC50,KB cells,38 nM
same,IC50,HL-60/ADR cells,> 3000 nM
same,Ratio,HL-60/ADR cells,>75
same,Ratio,HL-60/ADR cells; listed as doxorubicin,> 75
same,IC50,KB-V1 cells,> 300 nM
same,Ratio VI/KB,KB-V1 cells,>79
same,Ratio VI/KB,KB-V1 cells; listed as doxorubicin,> 79
same,IC50,S1 cells,61 nM
same,IC50,HL-60 cells,40 nM
same,IC50,S1-M1 cells,2880 nM
same,Ratio,S1-M1 cells,47
"Fc1cc(F)c(-c2c(Cl)nc(-n3cccc3)nc2NCC(F)(F)F)c(F)c1 [Example 18, 6-Chloro-2-(1H-pyrrol-1-yl)-N-(2,2,2-trifluoroethyl)-5-(2,4,6-trifluorophenyl)pyrimidin-4-amine]",IC50,COLO 205 cells,7080 nM
"CNc1nc(Cl)c(-c2c(F)cc(OCCCN(C)C)cc2F)c(NCC(F)(F)F)n1.O=C(O)C(F)(F)F [Example 20a, 6-Chloro-5-{4-[3-(dimethylamino)propoxy]-2,6-difluorophenyl}-N^2-methyl-N^4-(2,2,2-trifluoroethyl)pyrimidine-2,4-diamine trifluoroacetic acid salt]",IC50,KB-8-5 cells,57 nM
same,IC50,KB cells,26 nM
same,IC50,HL-60/ADR cells,68 nM
same,Ratio,HL-60/ADR cells,0.9
same,IC50,KB-V1 cells,140 nM
same,Ratio VI/KB,KB-V1 cells,5.5
same,recognition by P-glycoprotein,KB-V1 cells; inferred from change in IC50 KB-V1 vs KB,"show recognition by P-glycoprotein, but much less than that shown by paclitaxel and vincristine"
same,IC50,S1 cells,95 nM
same,IC50,HL-60 cells,72 nM
same,IC50,S1-M1 cells,82 nM
same,Ratio,S1-M1 cells,0.9
same,IC50,COLO 205 cells,56 nM
"CN(C)CCOc1cc(F)c(-c2c(Cl)nc(N(C)C#N)nc2NCC(F)(F)F)c(F)c1 [Example 22, 4-Chloro-5-{4-[2-(dimethylamino)ethoxy]-2,6-difluorophenyl}-6-[(2,2,2-trifluoroethyl)amino]pyrimidin-2-yl(methyl)cyanamide]",IC50,COLO 205 cells,532 nM
"CNCCCOc1cc(F)c(-c2c(Cl)nc(-c3cnccn3)nc2N[C@@H](C)C(F)(F)F)c(F)c1 [Example 24, 6-Chloro-5-{2,6-difluoro-4-[3-(methylamino)propoxy]phenyl}-2-pyrazin-2-yl-N-[(1S)-2,2,2-trifluoro-1-methylethyl]pyrimidin-4-amine]",IC50,COLO 205 cells,6.9 nM
"CN(C)CCCOc1cc(F)c(-c2c(Cl)nc(-c3cnccn3)nc2NCC(F)(F)F)c(F)c1 [Example 25, 6-Chloro-5-{4-[3-(dimethylamino)propoxy]-2,6-difluorophenyl}-2-pyrazin-2-yl-N-(2,2,2-trifluoroethyl)pyrimidin-4-amine]",IC50,COLO 205 cells,22 nM
"CN(C)CCCOc1cc(F)c(-c2c(Cl)nc(-c3ncccn3)nc2NCC(F)(F)F)c(F)c1 [Example 26, 6-Chloro-5-{4-[3-(dimethylamino)propoxy]-2,6-difluorophenyl}-N-(2,2,2-trifluoroethyl)-2,2′-bipyrimidin-4-amine]",IC50,COLO 205 cells,49 nM
"CN(C)CCOc1cc(F)c(-c2c(Cl)nc(-c3cnccn3)nc2NCC(F)(F)F)c(F)c1 [Example 27, 6-Chloro-5-{4-[2-(dimethylamino)ethoxy]-2,6-difluorophenyl}-2-pyrazin-2-yl-N-(2,2,2-trifluoroethyl)pyrimidin-4-amine]",IC50,COLO 205 cells,128 nM
"CN(C)CCCCOc1cc(F)c(-c2c(Cl)nc(-c3cnccn3)nc2NCC(F)(F)F)c(F)c1 [Example 28, 6-Chloro-5-{4-[4-(dimethylamino)butoxy]-2,6-difluorophenyl}-2-pyrazin-2-yl-N-(2,2,2-trifluoroethyl)pyrimidin-4-amine]",IC50,COLO 205 cells,32 nM
"Cn1ccnc1-c1nc(Cl)c(-c2c(F)cc(F)cc2F)c(NCC(F)(F)F)n1 [Example 34, 6-Chloro-2-(1-methyl-1H-imidazol-2-yl)-N-(2,2,2-trifluoroethyl)-5-(2,4,6-trifluorophenyl)pyrimidin-4-amine]",IC50,COLO 205 cells,77 nM
"Fc1cc(F)c(-c2c(Cl)nc(-c3ccc[nH]3)nc2NCC(F)(F)F)c(F)c1 [Example 35, 6-Chloro-2-(1H-pyrrol-2-yl)-N-(2,2,2-trifluoroethyl)-5-(2,4,6-trifluorophenyl)pyrimidin-4-amine]",IC50,COLO 205 cells,7030 nM
"Cc1ccnc(-c2nc(Cl)c(-c3c(F)cc(F)cc3F)c(NCC(F)(F)F)n2)c1 [Example 36, 6-Chloro-2-(4-methylpyridin-2-yl)-N-(2,2,2-trifluoroethyl)-5-(2,4,6-trifluorophenyl)pyrimidin-4-amine]",IC50,COLO 205 cells,109 nM
"O=[N+]([O-])c1ccc(-c2nc(Cl)c(-c3c(F)cc(F)cc3F)c(NCC(F)(F)F)n2)nc1 [Example 37, 6-Chloro-2-(5-nitropyridin-2-yl)-N-(2,2,2-trifluoroethyl)-5-(2,4,6-trifluorophenyl)pyrimidin-4-amine]",IC50,COLO 205 cells,132 nM
"CN(C)CCCOc1cc(F)c(-c2c(Cl)nc(-c3ccc(N=[N+]=[N-])cn3)nc2NCC(F)(F)F)c(F)c1 [Example 38, 2-(5-Azidopyridin-2-yl)-6-chloro-5-{4-[3-(dimethylamino)propoxy]-2,6-difluorophenyl}-N-(2,2,2-trifluoroethyl)pyrimidin-4-amine]",IC50,COLO 205 cells,23 nM
"O=C1c2c(O)ccc(O)c2C(=O)c2c(NCCNCCO)ccc(NCCNCCO)c21 [Mitoxantrone, reference compound]",IC50,KB-8-5 cells,256 nM
same,Ratio 8.5/KB,KB-8-5 cells,1.9
same,IC50,KB cells,132 nM
same,IC50,HL-60/ADR cells,259 nM
same,Ratio,HL-60/ADR cells,15
same,IC50,KB-V1 cells,401 nM
same,Ratio VI/KB,KB-V1 cells,3.0
same,IC50,S1 cells,25 nM
same,IC50,HL-60 cells,17 nM
same,IC50,S1-M1 cells,> 3000 nM
same,Ratio,S1-M1 cells,>120
same,Ratio,S1-M1 cells; listed as mitoxantrone,> 120
